The source made the active and inactive calls. No cut-off for these calls is given here.
Legend:
[1] = Toxicity in female nude mouse assessed as drug tolerance at 5 to 10 mg/kg, ip measured after 14 days; assay type: organism-based; conditions: in vivo, 336 h, dose 5-10 mg/kg, time 14 day
[2] = test system: HCC827; experiment: Antiproliferative activity against human HCC827 cells assessed as cell viability preincubated with FMK followed by compound addition and measured after 48 hrs by MTT assay; assay type: functional, cell-based
[3] = test system: HCC827; experiment: Induction of apoptosis in human HCC827 cells assessed as necrotic cells at 0.5 uM measured after 48 hrs by annexin V and PI staining based flow cytometry analysis (reference value: 1.18%); assay type: functional
[4] = test system: HCC827; experiment: Induction of ferroptosis in human HCC827 cells assessed as increase in lipid peroxidation level incubated for 24 hrs by absorbance based analysis; assay type: functional, cell-based; conditions: dose 0.25-0.5 µM
[5] = test system: HCC827; experiment: Induction of mitochondrial dysfunction in human HCC827 cells assessed as reduction in glycolytic reserve at 0.125 to 5 uM incubated for 4 hrs by Seahorse XF96 extracellular flux analyzer; assay type: functional, cell-based; conditions: dose 0.125-5 µM
[6] = test system: BEAS-2B; experiment: Inhibition of colony formation in human BEAS-2B cells at 0.05 to 0.1 uM incubated for 72 hrs by crystal violet staining based analysis; assay type: functional, cell-based; conditions: dose 0.05-0.1 µM
[7] = test system: HCC827; experiment: Induction of mitochondrial dysfunction in human HCC827 cells assessed as appearance of disrupted cristae at 1 uM after 24 hrs by TEM analysis; assay type: functional, cell-based
[8] = test system: Mitochondrial membrane; experiment: Induction of mitochondrial membrane depolarization in human BEAS-2B cells assessed as JC-1 monomer ratio by measuring increase green fluorescence at 0.25 uM incubated for 4 hrs by JC-1 staining based confocal microscopy analysis; assay type: cell membranes
[9] = test system: HCC827; experiment: Induction of mitochondrial dysfunction in human HCC827 cells assessed as cytochrome C release in cytoplasm at 0.4 uM by laser scanning confocal fluorescence microscopic analysis; assay type: functional, cell-based; conditions: time 24-72 hrs
[10] = test system: HCC827; experiment: Induction of apoptosis in human HCC827 cells assessed as late apoptotic cells at 0.5 uM measured after 48 hrs by annexin V and PI staining based flow cytometry analysis (reference value: 1.29%; assay type: functional
[11] = test system: HCC827; experiment: Induction of ROS generation in human HCC827 cells assessed as decrease in NADH content at 1 uM incubated for 4 hrs by absorbance based analysis; assay type: functional, cell-based
[12] = Antiproliferative activity against human HUVEC cells assessed as inhibition of cell growth measured after 72 hrs by MTT assay; assay type: toxicity, cell-based
[13] = test system: HCC827; experiment: Induction of apoptosis in human HCC827 cells assessed as late apoptotic cells at 1 uM measured after 48 hrs by annexin V and PI staining based flow cytometry analysis (reference value: 1.29%); assay type: functional
[14] = test system: Mitochondrial membrane; experiment: Induction of mitochondrial membrane depolarization in human BEAS-2B cells assessed as increase in JC-1 monomer ratio at 0.25 to 0.5 uM incubated for 4 hrs by JC-1 staining based confocal microscopy analysis; assay type: cell membranes; conditions: dose 0.25-0.5 µM
[15] = test system: HCC827; experiment: Downregulation of TIMM23 expression level in human HCC827 cells at 0.5 uM incubated for 24 hrs in presence of Baf A1 by Western blot analysis; assay type: functional, cell-based
[16] = test system: HCC827; experiment: Inhibition of cell migration in human HCC827 cells at 0.05 to 0.1 uM incubated for 24 hrs by crystal violet staining based transwell assay; assay type: functional; conditions: dose 0.05-0.1 µM
[17] = test system: A549; experiment: Antiproliferative activity against human A549 cells assessed as inhibition of cell growth measured after 72 hrs by MTT assay; assay type: functional, cell-based; conditions: A549, 72 h
[18] = Toxicity in female Kunming mouse assessed as change in body weight at 70 mg/kg, ip measured every two days for 7 days; assay type: organism-based; conditions: in vivo, 168 h, time 7 day
[19] = test system: HCC827; experiment: Effect on COX1 expression in human HCC827 cells at 0.25 to 0.5 uM; assay type: functional, cell-based; conditions: dose 0.25-0.5 µM
[20] = test system: HCC827; experiment: Effect on ATP5A expression in human HCC827 cells at 0.25 to 0.5 uM incubated for 24 hrs by Western blot analysis; assay type: functional, cell-based; conditions: dose 0.25-0.5 µM
[21] = test system: HCC827; experiment: Induction of cell cycle arrest in human HCC827 cells assessed as accumulation of cells at S phase at 0.4 uM incubated for 24 hrs by PI staining based flow cytometry analysis (reference value: 26.41%); assay type: functional
[22] = test system: HCC827; experiment: Induction of cell cycle arrest in human HCC827 cells assessed as accumulation of cells at G1 phase at 0.2 uM incubated for 24 hrs by PI staining based flow cytometry analysis (reference value: 66.44%); assay type: functional
[23] = test system: HCC827; experiment: Downregulation of HK-2 expression level in human HCC827 cells 0.5 uM incubated for 3 to 24 hrs in presence of BFA by Western blot analysis; assay type: functional, cell-based; conditions: time 3-24 hrs
[24] = Toxicity in female BALB/c mouse assessed as histopathological changes in heart at 30 mg/kg, ip measured for 7 days by H and E staining based analysis; assay type: organism-based; conditions: in vivo, 168 h, time 7 day
[25] = test system: HCC827; experiment: Induction of cell cycle arrest in human HCC827 cells assessed as accumulation of cells at G2 phase at 0.1 uM incubated for 24 hrs by PI staining based flow cytometry analysis (reference value: 7.15%); assay type: functional
[26] = test system: HCC827; experiment: Antiproliferative activity against human HCC827 cells assessed as cell viability preincubated with Nec followed by compound addition and measured after 48 hrs by MTT assay; assay type: functional, cell-based
[27] = test system: HCC827; experiment: Induction of apoptosis in human HCC827 cells assessed as late apoptotic cells at 1 uM measured after 36 hrs by annexin V and PI staining based flow cytometry analysis (reference value: 2.18%); assay type: functional
[28] = test system: HCC827; experiment: Induction of ROS generation in human HCC827 cells assessed as fold change at 1 uM incubated for 4 hrs in presence of VC by DCFH-DA staining based by absorbance based laser confocal microscopic analysis (reference value: 2.67); assay type: functional
[29] = Toxicity in male Kunming mouse assessed as change in body weight at 50 mg/kg, ip measured every two days for 7 days; assay type: organism-based; conditions: in vivo, 168 h, time 7 day
[30] = test system: HCC827; experiment: Downregulation of VDAC1 expression level in human HCC827 cells 0.5 uM incubated for 3 to 24 hrs in presence of BFA by Western blot analysis; assay type: functional, cell-based; conditions: time 3-24 hrs
[31] = test system: HCC827; experiment: Effect on NDUFB8 expression in human HCC827 cells at 0.25 to 0.5 uM incubated for 24 hrs by Western blot analysis; assay type: functional, cell-based; conditions: dose 0.25-0.5 µM
[32] = test system: HCC827; experiment: Effect on ATP5A expression in human HCC827 cells at 0.25 to 0.5 uM; assay type: functional, cell-based; conditions: dose 0.25-0.5 µM
[33] = test system: HCC827; experiment: Induction of mitochondrial dysfunction in human HCC827 cells assessed as mitochondrial shrinkage by TEM analysis; assay type: functional, cell-based
[34] = test system: HCC827; experiment: Downregulation of HK-2 expression level in human HCC827 cells 0.25 to 0.5 uM incubated for 24 hrs in presence of BFA by Western blot analysis; assay type: functional, cell-based; conditions: dose 0.25-0.5 µM
[35] = test system: MCF7; experiment: Antiproliferative activity against human MCF7 cells assessed as inhibition of cell growth measured after 72 hrs by MTT assay; assay type: functional, cell-based; conditions: MCF7, 72 h
[36] = test system: HeLa; experiment: Induction of mitophagy in human HeLa cells harbouring mCherry-GFP tag assessed as reduction in GFP fluorescence at 0.5 uM incubated for 24 hrs by confocal microscopy analysis; assay type: functional, cell-based
[37] = test system: HCC827; experiment: Induction of apoptosis in human HCC827 cells assessed as early apoptotic cells at 0.25 uM measured after 48 hrs by annexin V and PI staining based flow cytometry analysis (reference value: 0.70%); assay type: functional

SMILES: Cc1ccc([P+](CCCCCCCCCCO)(c2ccc(C)cc2)c2ccc(C)cc2)cc1.[Br-]
- Activity [1]: Non-toxic
- IC50 [2]: 110 nM
- Activity [3]: 2.09%
- Activity [4]: Dose-dependent-effect
- Activity [5]: Active
- inhibition [6]: Minimal_effect
- Activity [7]: Active
- Activity [8]: inactive
- Activity [9]: Time-dependent-effect
- Activity [10]: 7.12%
- Activity [11]: Active
- IC50 at 72 h [12]: 1800 nM
- Activity [13]: 9.96%
- Activity [14]: inactive
- Activity [15]: inactive
- inhibition [16]: Active
- IC50 [17]: 490 nM
- Activity [18]: Toxic
- Activity [19]: Active
- Activity [20]: Active
- Activity [21]: 9.39%
- Activity [22]: 76.74%
- Activity [23]: inactive
- Activity [24]: Non-toxic
- Activity [25]: 4.83%
- IC50 [26]: 130 nM
- Activity [27]: 0.32%
- Activity [28]: 0.8
- Activity [29]: Toxic
- Activity [30]: inactive
- Activity [31]: Active
- Activity [32]: Active
- Activity [33]: Active
- Activity [34]: inactive
- IC50 [35]: 160 nM
- Activity [36]: Active
- Activity [37]: 1.16%
